{"source": "paper PMC8378549", "about": "(Antiviral research, 2021)", "system": "TCRV (strain TRVL 11573)", "parameters": "species or system AG129 mice", "settings": "mouse, in vivo", "data": [{"smiles": "NC(=O)c1ncn([C@@H]2O[C@H](CO)[C@@H](O)[C@H]2O)n1", "note": "[Ribavirin, ribavirin]", "values": [{"measurement": "Infectious TCRV Liver", "value": "4.3, 3.5 log10 CCID50/mL"}, {"measurement": "Infectious TCRV Serum", "value": "2.5, ND log10 CCID50/mL"}, {"measurement": "Infectious TCRV Spleen", "value": "6.1, 5.5 log10 CCID50/mL"}, {"measurement": "survival", "value": 82, "unit": "%"}, {"measurement": "viral loads on day 9 p.i. compared to placebo", "value": "only modestly reduced viral loads"}]}]}
